Residues, ends and D or L forms follow the SMILES beside them.
How the values were obtained:
[1] = sweetness depends on the tested concentration compared with sucrose; cited from earlier work
[2] = HPLC/DAD/MS of Maillard reaction intermediates (MRI, Amadori products), unreacted partners and degradation kinetics at various pH; conditions: 120 °C; for % formation from degraded Phe: n.d. = not detected
Protocol: For HPLC analysis the reacted samples were injected after filtration (2 μm syringe filters).
Mobile Phase A consisted of a 0.1% formic acid in water. Mobile Phase B consisted of 0.1% formic acid in acetonitrile. […] Injection volume was set to 20 μl.
The mobile phase consisted of (A) 0.1% HCOOH (v/v) and (B) AcCN. A gradient of 5% (B) to 15% (B) was applied between 0 min to 15 min. Between 15 and 20 min (B) was increased to 45% which was kept for 5 min. Detection consisted of UV/VIS-DAD (205 nm, 254 nm, 450 nm) coupled to ESI-MS (pos mode, 300° C., TIC from m/z 120-1200, fragmentor 100).
Quantitative evaluation was performed using external standardization.

[3] = DPPH radical-scavenging activity (Example 65); conditions: Reb-A 10 mM with or without amino acid, 100° C., 0-5 hours, diluted 1:10; FIG. 49 and 50
Protocol: 1 mg 1,1-Diphenyl-2-picrylhydrazyl radical (DPPH)/ml ethanol, dilution to assay concentration were prepared in ethanol (40 μg/mL); Calibration samples were prepared with Ascorbic acid in a concentration of 0-10 μg/mL; as a negative control sample, water was used.
Samples in aqueous solution were used as such or diluted with water.
A 0.1 ml sample (or calibration standard) was mixed with 3.9 ml solution of DPPH (100 μMolar) and reacted while protected from light at room temperature for 30 min. Absorbance was determined at 517 nm against ethanol.
10 mM of amino acid and/or 10 mM sugar were dissolved in 10 ml 0.1 mM KH2PO4-buffer, pH=7.8.
The samples were kept at 100° C. in sealed glass vials (Pyrex 15 ml with screw caps) for 0 (before reaction), 2.5 or 5.0 hours. Thereafter the samples were transferred to an ice water bath and cooled down to room temperature. These samples were diluted 1:10 and used for the test assay for anti-oxidant potential.

[4] = reaction of Phe and Suc, pH = 5.5, 1.0 h

O=S(=O)([O-])NC1CCCCC1.[Na+] [sodium cyclamate]
times sweeter than sucrose (sugar, cane sugar) [1]: about 30 times

O=C(O)[C@H](Cc1ccccc1)NCC(=O)[C@@H](O)[C@H](O)[C@H](O)CO [MRI (Phe-Glu)]
% formation from degraded Phe [2, 4]: <0.10%
% formation from degraded Phe ([2]; reaction of Phe and Suc, pH = 7.0, 1.0 h): 0.54%
% formation from degraded Phe ([2]; reaction of Phe and Suc, pH = 8.5, 1.0 h): 0.84%

C=C1C[C@@]23CC[C@H]4[C@@](C)(CCC[C@@]4(C)C(=O)O[C@@H]4O[C@H](CO)[C@@H](O)[C@H](O)[C@H]4O)[C@@H]2CC[C@]1(O[C@@H]1O[C@H](CO)[C@@H](O)[C@H](O)[C@H]1O)C3 [Rubusoside]
times sweeter than sucrose (sugar, cane sugar) [1]: 200 times

C[C@H](CC[C@@H](O[C@@H]1O[C@H](CO)[C@@H](O)[C@H](O)[C@H]1O[C@@H]1O[C@H](CO)[C@@H](O)[C@H](O)[C@H]1O)C(C)(C)O)[C@H]1CC[C@@]2(C)[C@H]3CC=C4[C@@H](CC[C@H](O[C@@H]5O[C@H](CO[C@@H]6O[C@H](CO)[C@@H](O)[C@H](O)[C@H]6O)[C@@H](O)[C@H](O)[C@H]5O)C4(C)C)[C@]3(C)[C@H](O)C[C@]12C [mogroside IV]
times sweeter than sucrose (sugar, cane sugar) [1]: 126 times

N[C@H](Cc1ccccc1)C(=O)O [Phe]
% degradation [2, 4]: 5.50%
% degradation ([2]; reaction of Phe and Xyl, pH = 7.0, 1.0 h): 4.80%

OC[C@H]1O[C@H](O[C@]2(CCl)O[C@H](CCl)[C@@H](O)[C@@H]2O)[C@H](O)[C@@H](O)[C@H]1Cl [sucralose]
times sweeter than sucrose (sugar, cane sugar) [1]: about 600 times

COC(=O)[C@H](Cc1ccccc1)NC(=O)[C@@H](N)CC(=O)O [Aspartame] (H-Asp-Phe-OMe)
times sweeter than sucrose (sugar, cane sugar) [1]: 160-200 times

OC[C@@H](O)[C@@H](O)[C@H](O)[C@H](O)CO [Mannitol]
times sweeter than sucrose (sugar, cane sugar) [1]: 0.55-0.65 times

C=C1C[C@@]23CC[C@H]4[C@@](C)(CCC[C@@]4(C)C(=O)O[C@@H]4O[C@H](CO)[C@@H](O)[C@H](O)[C@H]4O)[C@@H]2CC[C@]1(O[C@@H]1O[C@H](CO)[C@@H](O)[C@H](O[C@@H]2O[C@H](CO)[C@@H](O)[C@H](O)[C@H]2O)[C@H]1O[C@@H]1O[C@H](CO)[C@@H](O)[C@H](O)[C@H]1O)C3 [Reb-A, Rebaudioside A]
anti-oxidant properties [3]: substantial anti-oxidant properties

C[C@H](CC[C@@H](O[C@@H]1O[C@H](CO[C@@H]2O[C@H](CO)[C@@H](O)[C@H](O)[C@H]2O)[C@@H](O)[C@H](O)[C@H]1O[C@@H]1O[C@H](CO)[C@@H](O)[C@H](O)[C@H]1O)C(C)(C)O)[C@H]1CC[C@@]2(C)[C@@H]3CC=C4[C@@H](CC[C@H](O[C@@H]5O[C@H](CO[C@@H]6O[C@H](CO)[C@@H](O)[C@H](O)[C@H]6O)[C@@H](O)[C@H](O)[C@H]5O)C4(C)C)[C@]3(C)[C@H](O)C[C@]12C [mogroside V]
times sweeter than sucrose (sugar, cane sugar) [1]: 256-344 times

Reference: patent US11304431B2, “Sweetener and flavor compositions, methods of making and methods of use thereof” (EPC Natural Products Co., Ltd., priority 2018, dated 2022)
